Experimental data reported in PMC3461280 (Bioorganic & medicinal chemistry letters, 2012).

Tests used:
[1] = tested on: hERG potassium channel; settings: cited from earlier work
[2] = tested on: P450 isoforms; settings: cited from earlier work
[3] = cited from earlier work
[4] = cited from earlier work; remark: listed apart in the source
[5] = cited from earlier work; remark: listed apart in the source
[6] = target: human D3 receptor (Homo sapiens, UniProt P35462); format: cell-based; settings: D3 functional mitogenesis assay
human D3 receptor, sequence (P35462 whole entry): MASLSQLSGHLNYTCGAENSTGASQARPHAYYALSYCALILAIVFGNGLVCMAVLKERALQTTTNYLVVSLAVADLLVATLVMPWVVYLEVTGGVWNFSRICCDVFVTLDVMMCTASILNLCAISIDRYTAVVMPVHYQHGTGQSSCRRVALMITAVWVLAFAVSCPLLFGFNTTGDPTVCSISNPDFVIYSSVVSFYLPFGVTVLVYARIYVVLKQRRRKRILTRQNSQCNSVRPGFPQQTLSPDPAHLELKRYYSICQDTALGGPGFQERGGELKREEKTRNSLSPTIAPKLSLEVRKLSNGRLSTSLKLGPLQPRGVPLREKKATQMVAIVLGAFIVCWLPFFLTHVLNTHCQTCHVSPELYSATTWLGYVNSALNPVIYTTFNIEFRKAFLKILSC

[7] = rat; cited from earlier work

Row | SMILES | CNS penetration [4] | aqueous solubility [5] | functional activity at the D3 receptor [6] | further results
1 | Cc1ncoc1-c1nnc(SCCCN2CC3CC3(c3ccc(C(F)(F)F)cc3F)C2)n1C (stereo not shown) [Compound 3] | good | – | – | inhibition at the hERG channel [1]: weak inhibition; inhibition on all the P450 isoforms [2]: weak inhibition; oral bioavailability [3]: excellent
2 | CCCN(CC[C@H]1CC[C@H](NC(=O)/C=C/c2ccccc2)CC1)[C@H]1CCc2nc(N)sc2C1 [Compound 10] | – | excellent | – | –
3 | CCCN(CC[C@H]1CC[C@H](NC(=O)c2ccc3ccccc3c2)CC1)[C@H]1CCc2nc(N)sc2C1 [Compound 11] | – | excellent | – | –
4 | CCCN(CC[C@H]1CC[C@H](NC(=O)c2cccc(-c3noc(C)n3)c2)CC1)[C@H]1CCc2nc(N)sc2C1 [Compound 38] | – | – | full agonists | –
5 | CCCN(CC[C@H]1CC[C@H](NS(=O)(=O)c2cccnc2Cl)CC1)[C@H]1CCc2nc(N)sc2C1 [Compound 52] | – | – | full agonists | –
6 | Cc1nc(-c2cccc(C(=O)N[C@H]3CC[C@H](CCN4CCc5ccc(S(C)(=O)=O)cc5CC4)CC3)c2)no1 [SB-414796] | good | – | – | bioavailability [7]: excellent
